Measurements: patent USRE38333E1, “Antiviral phosphonomethoxy nucleotide analogs having increased oral bioavailability” (Gilead Sciences, Inc., priority 1996, dated 2003)

Experiment: not given
Format: in vitro ADME
Details: 37° C., 20 μg/mL
Protocol: (§1) Enzymatic stability studies involving plasma and intestinal homogenate were performed with 90% biological fluids.
(§2) One blank (drug free) incubation was performed for each biological fluid. All biological fluid tubes (open) were pre-incubated without PMPA prodrugs in a shaker bath at 37° C. and 100 oscillation/min for 5 minutes. PMPA prodrugs was added to the test incubations (final concentration: 20 μg/mL, mixed and maintained at 37° C. and 100 oscillations/min. Samples (50 μL) were withdrawn at 0, 30, and 60 minutes and the reaction was quenched with 100 μL of 0.1% trifluoroacetic acid (TFA) in acetonitrile. Quenched samples were centrifuged for 5 minutes at 14,000 rpm in an Eppendorf Centrifuge 5402, and the supernatant was used for HPLC analysis.
(§3) For each incubation, the observed rate constant for degradation was calculated by plotting the log of the peak area of PMPA prodrugs versus time of incubation (min). The slope was the observed rate constant (kobs). The half life was calculated according to the following equation: [formula]
(§4) If the observed rate constant for degradation was less than 0.01 min^−1, then t½ was expressed as stable.

Row | SMILES | Biological t½ (min) (Dog) Plasma
1 | CCOC(=O)OC(C)OP(=O)(CO[C@H](C)Cn1cnc2c(N)ncnc21)OC(C)OC(=O)OCC (stereo partly drawn) [Bis-EtCOE PMPA] | 42.6 min
2 | CCOC(=O)OCOP(=O)(CO[C@H](C)Cn1cnc2c(N)ncnc21)OCOC(=O)OCC [Bis-EtCOM PMPA, Bis-ethyl Oxymethyl Carbonate of PMPA] | 16.6 min
3 | CC(C)COC(=O)OCOP(=O)(CO[C@H](C)Cn1cnc2c(N)ncnc21)OCOC(=O)OCC(C)C [Bis-IBu COM PMPA] | <5 min
4 | CCCN(CCC)C(=O)OCOP(=O)(CO[C@H](C)Cn1cnc2c(N)ncnc21)OCOC(=O)N(CCC)CCC [Bis-di-n-proNCOM PMPA] | Stable (If the observed rate constant for degradation was less than 0.01 min^−1, then t½ was expressed as stable)

Experiment: Enzymatic stability in human intestinal homogenate (S9)
Format: in vitro ADME
Details: human intestinal homogenate (values in parentheses), 37° C., 20 μg/mL
Protocol: Human intestinal homogenate (S9) was obtained from Keystone Skin Bank (Exton, Pa.) at concentration of 20 mg protein/mL.
as §1, §2, §3, §4

Row | SMILES | Biological t½ (min) (Human) Intestine
5 | CCOC(=O)OCOP(=O)(CO[C@H](C)Cn1cnc2c(N)ncnc21)OCOC(=O)OCC [Bis-EtCOM PMPA, Bis-ethyl Oxymethyl Carbonate of PMPA] | (<5) min
6 | CC(C)COC(=O)OCOP(=O)(CO[C@H](C)Cn1cnc2c(N)ncnc21)OCOC(=O)OCC(C)C [Bis-IBu COM PMPA] | (<5) min

Experiment: not given
Format: in vitro ADME
Details: dog intestinal homogenate, 37° C., 20 μg/mL
Protocol: Dog intestinal segments (jejunum/ileum) were obtained fresh from Pharmakon USA (Waverly, Pa.) and intestinal homogenate was prepared as described for liver. The intestinal homogenates were stored as 1.0 mL aliquots at −70° C.
as §1, §2, §3, §4

Row | SMILES | Biological t½ (min) (Dog) Intestine
7 | CCOC(=O)OC(C)OP(=O)(CO[C@H](C)Cn1cnc2c(N)ncnc21)OC(C)OC(=O)OCC (stereo partly drawn) [Bis-EtCOE PMPA] | 62.4 min
8 | CCOC(=O)OCOP(=O)(CO[C@H](C)Cn1cnc2c(N)ncnc21)OCOC(=O)OCC [Bis-EtCOM PMPA, Bis-ethyl Oxymethyl Carbonate of PMPA] | 23.3 min
9 | CC(C)COC(=O)OCOP(=O)(CO[C@H](C)Cn1cnc2c(N)ncnc21)OCOC(=O)OCC(C)C [Bis-IBu COM PMPA] | 15 min
10 | CCCN(CCC)C(=O)OCOP(=O)(CO[C@H](C)Cn1cnc2c(N)ncnc21)OCOC(=O)N(CCC)CCC [Bis-di-n-proNCOM PMPA] | Stable (If the observed rate constant for degradation was less than 0.01 min^−1, then t½ was expressed as stable)

Experiment: Oral bioavailability of PMPA and PMPA carbonates in beagle dogs
Format: in vivo
Details: 6.2-10 mg eq of PMPA/kg, PMPA in plasma
Protocol: PMPA (9-[(R)-2-(phosphonomethoxy)propyl]adenine) and PMPA carbonates were examined to determine the effect of dose on the pharmacokinetics of PMPA in beagle dogs, in particular the bioavailability of PMPA following oral administration to beagle dogs.
The intravenous formulations used as standards were isotonic aqueous solutions containing 50 mg/mL PMPA. Compound was added to 10 mL of WFI (water for injection from Abbott Laboratory) and 1N NaOH was added to adjust the pH to 7.4. The solutions were diluted to 15 mL with WFI and sterile filtered with a 0.2 μm filter. The PMPA dose was 10 mg/kg (0.2 mL/kg).
The intravenous formulation for a 1 mg/kg dose was prepared as described above except only 75 mg of PMPA was added to WFI and the final concentration was 5 mg/mL. The dose was 1 mg/kg (0.2 mL/kg). Oral formulations of carbonates were prepared in 20-40% PEG 400/50 mM citric acid and were adjusted to pH 2.2.
Two groups of five adult male beagle dogs were used. The mean body weight at the time of the first does was 9.6±0.4 Kg (range 9.2-10.2). The dogs were fasted 12-18 hours prior to dosing and until 6 hours post-dose. For pentagastrin pretreatment, dogs were given a single intramuscular injection of pentagastrin (Peptavlon 0.25 mg/mL, Ayerst Laboratories, Inc., Philadelphia, Pa.) at a dose of 6 μg/kg, 20 minutes prior to dosing. Water was provided ad lib.
Each formulation was administered as a single dose to five male beagle dogs. Individual vials of each formulation were provided for each animal. The intravenous formulation was administrated via a cephalic vein. The oral suspension was administered by gavage, followed by two 10 mL water washes. At least one week washout period was allowed between administrations.
Blood samples (4.0 mL) were collected by direct jugular access from each animal into heparinized tubes. Animals remained conscious throughout the sample collection period. Blood was processed immediately for plasma by centrifugation at 2000 rpm for 10 minutes. Plasma samples were frozen and maintained at ≦−20° C. until analyzed.
Urine samples were collected over 0-24 and 24-48 hours time periods. Urine samples from 0-24 and 24-48 hours were divided into aliquots and mixed based on the volume collected and analyzed to determine amount of PMPA recovered from urine during 0-48 hours.
PMPA in Plasma and Urine was determined as follows. PMEA (9-(2-phosphono-methoxyethyl)adenine; adefovir) was used as the internal standard for both analyses. The total concentration of PMPA in dog plasma or urine samples was determined by derivatizing PMPA and PMEA with chloroacetaldehyde to yield a highly fluorescent N^1,N^6-ethenoadenine derivative as described (Russell, J. et al. (1991) Determination of 9-[(2-Phosophonylmethoxy)-ethyl]Adenine in Rat Urine by High-Performance Liquid Chromatography with Fluorescence Detection. J. Chromatogr. (Netherlands) 572, 321-326).
Sample Extraction for PMPA in plasma and urine was performed as follows. Plasma (200 μL) and internal standard ([…]) were mixed with 400 μL of acetonitrile containing 0.1% TFA to precipitate protein. Samples were then evaporated to dryness under reduced pressure at room temperature (Savant SpeedVac). Urine samples (20 μL) and internal standard (30 μL of 10 μg/mL PMEA providing a final PMEA concentration of 1.5 μg/mL) were used directly for derivatization without drying.
The samples were derivatized for analysis as follows. Dried plasma samples or urine samples were reconstituted or mixed in 200 μL derivatization cocktail (0.34% chloroacetaldehyde in 100 mM sodium acetate, pH 4.5), vortexed, and centrifuged for 10 minutes at 14,000 rpm in an Eppendorf Centrifuge 5402. Supernatant was then transferred to a clean screw capped tube and incubated at 95° C. for 40 minutes. Derivatized samples were quenched on ice and evaporated to dryness under reduced pressure at room temperature. […]

Row | SMILES | % of PMPA IV (1 mg/kg) AUC: PMPA [%]
11 | CCOC(=O)OCOP(=O)(CO[C@H](C)Cn1cnc2c(N)ncnc21)OCOC(=O)OCC [Bis-EtCOM PMPA, Bis-ethyl Oxymethyl Carbonate of PMPA] | 29.3 ± 3.4
12 | CC(C)COC(=O)OCOP(=O)(CO[C@H](C)Cn1cnc2c(N)ncnc21)OCOC(=O)OCC(C)C [Bis-IBu COM PMPA] | 24.5 ± 8.82

Same assay, conditions: intact prodrug in plasma

Row | SMILES | % of PMPA IV (1 mg/kg) AUC: Prodrug [%]
13 | CCOC(=O)OCOP(=O)(CO[C@H](C)Cn1cnc2c(N)ncnc21)OCOC(=O)OCC [Bis-EtCOM PMPA, Bis-ethyl Oxymethyl Carbonate of PMPA] | 0

Same assay, conditions: monoester in plasma

Row | SMILES | % of PMPA IV (1 mg/kg) AUC: Monoester [%]
14 | CCOC(=O)OCOP(=O)(CO[C@H](C)Cn1cnc2c(N)ncnc21)OCOC(=O)OCC [Bis-EtCOM PMPA, Bis-ethyl Oxymethyl Carbonate of PMPA] | −2

Same assay, conditions: other species in plasma

Row | SMILES | % of PMPA IV (1 mg/kg) AUC: other [%]
15 | CCOC(=O)OCOP(=O)(CO[C@H](C)Cn1cnc2c(N)ncnc21)OCOC(=O)OCC [Bis-EtCOM PMPA, Bis-ethyl Oxymethyl Carbonate of PMPA] | 0

Experiment: Enzymatic stability in dog liver homogenate (S9)
Format: in vitro ADME
Details: 37° C., 20 μg/mL
Protocol: Dog liver was obtained fresh from Pharmakon USA (Waverly, Pa.). Liver homogenate was prepared following a standard protocol. Dog liver was rinsed three times with ice-code 50 mM sodium/potassium phosphate buffer and homogenized with a Tekmar Tissumizer homogenizer (VWR 33995-060). The homogenate was centrifuged at 9000 g (11,000 rpm for Eppendorf Centrifuge 5402; Brinkman Instruments, Westbury, N.Y.) at 4° C. for 20 minutes. The supernatant was designated at the S9 fraction. The concentration of protein in the S9 fraction was determined using a Bio-Rad Protein Assay Kit II, with bovine serum albumin as standard. Esterase activity was determined using o-nitrophenyl butyreate as substrate and activity was calculated based on the increase in absorbance at 420 nm after a 1 min incubation. The homogenates were stored as 1.0 mL aliquots at −70° C.
as §2, §3, §4

Row | SMILES | Biological t½ (min) (Dog) Liver
16 | CCOC(=O)OC(C)OP(=O)(CO[C@H](C)Cn1cnc2c(N)ncnc21)OC(C)OC(=O)OCC (stereo partly drawn) [Bis-EtCOE PMPA] | <5
17 | CCOC(=O)OCOP(=O)(CO[C@H](C)Cn1cnc2c(N)ncnc21)OCOC(=O)OCC [Bis-EtCOM PMPA, Bis-ethyl Oxymethyl Carbonate of PMPA] | <5
18 | CC(C)COC(=O)OCOP(=O)(CO[C@H](C)Cn1cnc2c(N)ncnc21)OCOC(=O)OCC(C)C [Bis-IBu COM PMPA] | <5
19 | CCCN(CCC)C(=O)OCOP(=O)(CO[C@H](C)Cn1cnc2c(N)ncnc21)OCOC(=O)N(CCC)CCC [Bis-di-n-proNCOM PMPA] | 76

Experiment: Partition coefficient (Log PC)
Format: physicochemical
Details: not given

Row | SMILES | Log PC pH 7.4
20 | CCOC(=O)OCOP(=O)(CO[C@H](C)Cn1cnc2c(N)ncnc21)OCOC(=O)OCC [Bis-EtCOM PMPA, Bis-ethyl Oxymethyl Carbonate of PMPA] | 0.6
21 | CC(C)COC(=O)OCOP(=O)(CO[C@H](C)Cn1cnc2c(N)ncnc21)OCOC(=O)OCC(C)C [Bis-IBu COM PMPA] | 2.0
